The text below walks through data of ChEMBL document CHEMBL6087421, “Development of selective sigma-1 receptor ligands with antiallodynic activity: A focus on piperidine and piperazine scaffolds” (Eur J Med Chem, 2025).

Series [1] can be described thus: Lipophilicity, log P of the compound. The format is physicochemical. To be noted: octanol/water.
Series [2] is described as follows: Lipophilicity, log D of the compound at pH 7.4. To be noted: buffer.
Series [3] concerns the target T1, Sigma non-opioid intracellular receptor 1 (Homo sapiens, UniProt Q99720). Kind of series: Displacement of [3H]-(+)-PTZ from S1R (unknown origin) assessed as inhibition constant by radioligand binding assay.
For series [4], the system named is HMC3. Nature of the series: Cytotoxicity against human HMC3 cells assessed as reduction in cell viability at 0.1 to 30 uM incubated for 48 hrs by acridine orange staining based microplate reader analysis. The note with it: hmc3, 48 h, dose 0.1-30 µM. The format is toxicity.
Series [5] relates to Mus musculus. Nature of the series: Antiallodynic activity in capsaicin-induced wild-type female CD-1 mouse administered subcutaneously and measured after 45 min. To be noted: route sc. The format is functional, organism-based.
Series [6] deals with Mus musculus. Nature of the series: Antiallodynic activity in capsaicin-induced wild-type female CD-1 mouse at 10 mg/kg, sc measured after 45 mins relative to control. The class given is functional. To be noted: 0.75 h.
Series [7] relates to Mus musculus. Nature of the series: Antiallodynic activity in capsaicin-induced wild-type female CD-1 mouse assessed as maximum antiallodynic effect at 10 mg/kg, sc co-administered with PRE-084 measured after 45 mins. The format is functional, organism-based.
Series [8] relates to Mus musculus. Kind of series: Antiallodynic activity in capsaicin-induced wild-type female CD-1 mouse at 2 to 10 mg/kg, sc measured after 45 mins. The format is functional, organism-based. The note with it: dose 2-10 mg/kg.
Series [9] concerns Mus musculus. Kind of series: Antihyperalgesic activity in PGE2-induced wild type female CD-1 mouse assessed as increase in response latency at 10 mg/kg, sc and measured by paw pressure test. The format is functional, organism-based.
The subject of series [10] is Mus musculus. Kind of series: Antihyperalgesic activity in PGE2-induced S1R knockout mouse at 10 mg/kg administered subcutaneously. The format is functional, organism-based. To be noted: route sc.
Series [11] has as its target Sigma intracellular receptor 2 (Homo sapiens, UniProt Q5BJF2). Kind of series: Binding affinity to S2R (unknown origin) assessed as inhibition constant.
Series [12] concerns the target T1, Sigma non-opioid intracellular receptor 1.
Description: Binding affinity to S1R (unknown origin) assessed as inhibition constant
Series [13] is described as follows: Stability of compound in phosphate buffer at pH 7.4 assessed as half life. The format is physicochemical.
Series [14] is described as follows: Aqueous solubility of compound by UHPLC-PDA analysis. The class given is physicochemical. The note with it: buffer.
Series [15] in a line: Lipophilicity, log D of the compound in Octanol/PBS buffer at pH 7.4 at 5 to 150 uM by UV-Vis spectrophotometric analysis. The class given is physicochemical. The note with it: dose 5-150 µM.
Series [16] is described as follows: Octanol/water partition coefficient, log P of the compound. The class given is physicochemical.
The target of series [17] is Voltage-gated inwardly rectifying potassium channel KCNH2 (Homo sapiens, UniProt Q12809). Kind of series: Inhibition of hERG in CHO-K1 cells. The format is toxicity, cell-based. (In general: Block of hERG is tested as a sign of cardiac risk.)
For series [18], the system named is Mus musculus. Kind of series: Antiallodynic activity in capsaicin-induced wild-type female CD-1 mouse at 5 to 10 mg/kg, sc measured after 45 mins. To be noted: dose 5-10 mg/kg. The class given is functional, organism-based.
Series [19] in a line: Cytotoxicity against human WS1 cells assessed as reduction in cell viability incubated for 48 hrs by acridine orange staining based microplate reader analysis. The format is toxicity. To be noted: ws1, 48 h.
For series [20], the system named is Mus musculus. Kind of series: Antiallodynic activity in capsaicin-induced wild-type female CD-1 mouse at 5 to 30 mg/kg, sc measured after 45 mins relative to control. The format is functional. To be noted: dose 5-30 mg/kg, 0.75 h.
Series [21] concerns Mus musculus. Nature of the series: Antiallodynic activity in capsaicin-induced wild-type female CD-1 mouse assessed as maximum antiallodynic effect at 30 mg/kg, sc co-administered with PRE-084 measured after 45 mins. The format is functional, organism-based.
Series [22] concerns Mus musculus. Kind of series: Antiallodynic activity in capsaicin-induced wild-type female CD-1 mouse assessed as maximum antiallodynic effect administered subcutaneously and co-administered with PRE-084 measured after 45 mins relative to control. The note with it: route sc, 0.75 h. The class given is functional.
In series [23] the test system is Mus musculus. Kind of series: Antihyperalgesic activity in PGE2-induced wild type female CD-1 mouse assessed as increase in response latency at 60 mg/kg, sc and measured by paw pressure test. The class given is functional, organism-based.
Series [24] concerns Mus musculus. Kind of series: Antihyperalgesic activity in PGE2-induced S1R knockout mouse at 60 mg/kg administered subcutaneously. The format is functional, organism-based. The note with it: route sc.

In brackets after ≈: the same amount, converted by molar mass. Activity calls are given as the source filed them.

T1 sequence (Q99720 whole entry): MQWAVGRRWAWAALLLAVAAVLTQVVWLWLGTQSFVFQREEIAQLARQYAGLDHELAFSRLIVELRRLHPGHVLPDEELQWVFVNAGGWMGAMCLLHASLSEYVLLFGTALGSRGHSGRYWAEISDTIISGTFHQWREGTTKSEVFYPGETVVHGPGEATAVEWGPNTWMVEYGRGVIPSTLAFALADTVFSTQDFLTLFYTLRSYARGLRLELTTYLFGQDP
Sequence of Sigma intracellular receptor 2 (Q5BJF2 whole entry): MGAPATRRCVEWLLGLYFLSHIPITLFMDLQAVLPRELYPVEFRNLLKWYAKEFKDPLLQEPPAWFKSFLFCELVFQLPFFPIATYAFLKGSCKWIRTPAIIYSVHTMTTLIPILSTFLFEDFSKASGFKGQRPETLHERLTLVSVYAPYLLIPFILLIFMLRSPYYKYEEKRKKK
Sequence of Voltage-gated inwardly rectifying potassium channel KCNH2 (Q12809 whole entry): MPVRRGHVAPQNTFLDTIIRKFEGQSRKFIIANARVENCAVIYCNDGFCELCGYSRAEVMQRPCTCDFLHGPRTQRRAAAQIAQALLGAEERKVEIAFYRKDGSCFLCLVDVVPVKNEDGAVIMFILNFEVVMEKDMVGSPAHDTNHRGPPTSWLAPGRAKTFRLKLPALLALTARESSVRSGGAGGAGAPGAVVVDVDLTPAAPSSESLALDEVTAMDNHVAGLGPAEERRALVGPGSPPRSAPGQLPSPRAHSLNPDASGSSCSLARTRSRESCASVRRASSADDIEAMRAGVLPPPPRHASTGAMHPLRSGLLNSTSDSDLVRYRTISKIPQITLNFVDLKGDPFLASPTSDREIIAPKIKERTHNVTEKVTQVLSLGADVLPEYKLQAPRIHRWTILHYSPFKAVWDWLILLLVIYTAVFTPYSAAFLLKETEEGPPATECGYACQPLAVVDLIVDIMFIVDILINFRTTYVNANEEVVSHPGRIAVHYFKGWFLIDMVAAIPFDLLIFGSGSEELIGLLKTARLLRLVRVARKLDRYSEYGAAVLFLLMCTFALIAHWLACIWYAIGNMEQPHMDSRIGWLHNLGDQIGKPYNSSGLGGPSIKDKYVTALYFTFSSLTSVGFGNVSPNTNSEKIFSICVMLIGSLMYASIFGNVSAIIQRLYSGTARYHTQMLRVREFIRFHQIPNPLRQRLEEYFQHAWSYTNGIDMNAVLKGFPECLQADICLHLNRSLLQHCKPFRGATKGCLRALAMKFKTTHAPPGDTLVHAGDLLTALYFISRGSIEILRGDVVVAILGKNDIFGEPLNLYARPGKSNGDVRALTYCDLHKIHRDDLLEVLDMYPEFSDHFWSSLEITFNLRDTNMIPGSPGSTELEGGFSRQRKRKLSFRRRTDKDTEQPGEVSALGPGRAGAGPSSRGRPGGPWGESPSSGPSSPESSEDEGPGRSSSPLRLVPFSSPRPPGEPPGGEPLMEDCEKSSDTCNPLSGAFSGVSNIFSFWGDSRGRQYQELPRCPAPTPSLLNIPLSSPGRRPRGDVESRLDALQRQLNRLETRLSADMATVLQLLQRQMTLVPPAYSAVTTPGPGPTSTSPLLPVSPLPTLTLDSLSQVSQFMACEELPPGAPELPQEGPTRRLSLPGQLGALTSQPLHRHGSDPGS

The term logP denotes a log measure of how a compound divides between an organic and an aqueous phase. High values mean higher lipophilicity, low ones lower lipophilicity. In general, logD refers to lipophilicity at a set pH, counting ionised and neutral species. Read a low logD as a more hydrophilic compound. For the compound `O=C(CCCN1CCC(O)(c2ccc(Cl)cc2)CC1)c1ccc(F)cc1` [HALOPERIDOL], the logP in series [1] was 4.03. The same compound returned a logD in [2] of 3.99.

What is called Ki is the dissociation constant of the complex between target and ligand, obtained from inhibition or displacement. As to `CCOC(=O)C(c1ccccc1)N(C)C1CCN(CCc2ccccc2)CC1` (racemic), the Ki in series [3] was 9.9 nM. Besides, the values for the Activity entry in series [4], in series [5] and in [6] were “Non-toxic”, “Dose-dependent-effect” and 100%, respectively. Besides, the outcome in [7], in series [8] and in [9] was Active. Also, the result in series [10] was inactive.

`COc1ccc(CCN2CCN(CCCc3ccccc3)CC2)cc1OC` [[11C]SA4503]: the Ki in series [11] worked out at 90 nM.

Compound `COc1cc2c(cc1OC)C(=O)C(CC1CCN(Cc3ccccc3)CC1)C2` (configuration not stated) [DONEPEZIL] yielded a Ki in series [12] of 15 nM.

As usually defined, the half-life is the time needed for the level to fall by half in the phase considered. What is called solubility is the dissolved amount per volume that the medium holds. A higher solubility goes with a readily soluble substance. A word on the IC50: it is the concentration at which inhibition is half-maximal. Low readings indicate greater potency, high ones weaker potency. For `CCOC(=O)C(c1ccccc1)N(C)C1CCN(Cc2ccccc2)CC1` (racemic), the half-life in series [13] was 1.59 h. This compound came in with a solubility in series [14] of 1870 µg/mL (≈ 5.1 mM). In series [15], this compound came in with a pH-dependent lipophilicity (logD) at up to 150 µM of 1.72. Moreover, the log partition coefficient (logP) in series [16] was 1.79. In series [17], the 50% inhibitory concentration (IC50) is 1600 nM. Besides, the Activity entry in series [4] is “Non-toxic”; in series [5] it was “Dose-dependent-effect”; in series [6], 100%; in [19], “Non-toxic”. The result in series [7], in series [18] and in [9] was Active. In series [10], the outcome was inactive.

On to `Cc1cc(OCCN2CCOCC2)nn1-c1ccc2ccccc2c1.Cl`, for which the Activity in [20] was 100%; in [5] it was “Dose-dependent-effect”; in series [22], 100%. Further, the result in [21] and in series [23] was Active. For the same compound, in series [24], the outcome was inactive.

For `CN1CCN(CCc2ccc(Cl)c(Cl)c2)CC1`, the Ki stood at 14 nM in series [3], 6.5 nM in series [11] and 14 nM in series [12]. In addition, in series [4], the Activity result is “Non-toxic”.

As to `CC(C)=CCN1CC[C@@]2(C)c3cc(O)ccc3C[C@@H]1[C@@H]2C`, the Activity entry in [4] was “Non-toxic”.

As to `CCN(CC)C(=O)C(c1ccccc1)N(C)C1CCN(CCc2ccccc2)CC1` (racemic), the inhibitory constant (Ki) in [3] was 108 nM.
